Experimental data taken from publication PMC7115530 (European Journal of Medicinal Chemistry, 2012).

Biological target: SARS-CoV 3CL^pro (Severe acute respiratory syndrome coronavirus, UniProt P0C6X7)
Assay type: biochemical

CC(C)C[C@H](NC(=O)[C@@H](NC(=O)[C@H](C)NC(=O)OCc1ccccc1)C(C)C)C(=O)N[C@H](C#N)CCC(N)=O [Cbz-AVLQ-CN]
increase in potency over the other inhibitors tested: ~10 fold
